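Method: 48-hour compound exposure of cells in 96-well plates, five concentrations, linear interpolation of endpoints. GI50: concentration for 50% inhibition of growth. Definition used: TGI = concentration required for complete inhibition of growth.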
Key:
Experiment in all cases: NCI anticancer screen, dose series, 48 h
[1] = tested on: TK-10 renal
[2] = tested on: NCI-H23 lung
[3] = tested on: UO-31 renal
[4] = tested on: MOLT-4 leukemia
[5] = tested on: CAKI-1 renal
[6] = tested on: RPMI-8226 leukemia
[7] = tested on: SW-620 colon
[8] = tested on: A498 renal
[9] = tested on: MCF7 breast
[10] = tested on: UACC-257 melanoma

Row | SMILES | GI50 [1] | TGI [1] | GI50 [2] | TGI [2] | GI50 [3] | TGI [3] | GI50 [4] | TGI [4] | GI50 [5] | TGI [5] | GI50 [6] | TGI [6] | GI50 [7] | TGI [7] | GI50 [8] | TGI [8] | GI50 [9] | TGI [9] | GI50 [10] | TGI [10]
1 | O=C(c1ccccc1)c1c2n(c3c1cc(O)c1ccccc13)CCN2 | 23.1 µM | 75.2 µM | 4.17 µM | 12 µM | 16.2 µM | 31.3 µM | 2.06 µM | 4.45 µM | 11.1 µM | 52.5 µM | 2.42 µM | 6.47 µM | 3.47 µM | 14.8 µM | 18.3 µM | 35.4 µM | 1.97 µM | 3.87 µM | 1.91 µM | 3.4 µM
2 | Cc1cc2nc3c4cc([N+](=O)[O-])ccc4n(CCN(C)C)c3nc2cc1C | 0.373 µM | 4.34 µM | 0.501 µM | 2.58 µM | 0.187 µM | 2.52 µM | 0.373 µM | 8.68 µM | 0.334 µM | 2.21 µM | 0.459 µM | 3.19 µM | 0.301 µM | 7.19 µM | 0.452 µM | 1.74 µM | 0.36 µM | – | 0.725 µM | 4.21 µM
3 | O=C1c2ccccc2-c2ccccc2C1(Cl)Cl | 1.25 µM | 2.68 µM | 1.57 µM | 4.25 µM | 1.12 µM | 2.41 µM | 2.19 µM | 7.09 µM | 1.17 µM | 2.63 µM | 0.527 µM | 2.63 µM | 1.84 µM | 3.82 µM | 1.09 µM | 2.77 µM | 1.86 µM | 4.19 µM | 0.203 µM | 0.476 µM
4 | Oc1[nH]c2ccccc2c1/C=c1/ccc2c(c1)N=C(c1cc(F)cc(F)c1)N=2 | 14 µM | 27.7 µM | 4.13 µM | 17.7 µM | 3.42 µM | 20.1 µM | 3.53 µM | 14.6 µM | 2.47 µM | 15.1 µM | 3.22 µM | 17.5 µM | 3.55 µM | 15.8 µM | 1.53 µM | 17 µM | 2.84 µM | 14.1 µM | 10.6 µM | 26.4 µM
5 | CC(=O)Nc1ccc(Cc2ccc3[nH]c(=O)cc(C)c3c2)cc1 | – | > 100 µM | – | > 100 µM | – | > 100 µM | – | > 100 µM | – | > 100 µM | – | > 100 µM | – | > 100 µM | – | > 100 µM | – | > 100 µM | – | > 100 µM
6 | Cn1cc(-c2ccc3nnc(C(F)(F)c4ccc5ncccc5c4)n3n2)cn1 | 32.1 µM | > 100 µM | 66 µM | > 100 µM | 28.4 µM | > 100 µM | 52.5 µM | > 100 µM | 31.4 µM | > 100 µM | 88.6 µM | > 100 µM | > 95.8 µM | > 100 µM | 24.8 µM | > 100 µM | 69.4 µM | > 100 µM | > 100 µM | > 100 µM
7 | COc1ccc(Nc2ncccc2C(=O)NCc2cn(Cc3cccc(Oc4ccccc4)c3)nn2)c(OC)c1 | 13.8 µM | > 100 µM | 2.18 µM | > 100 µM | 5.54 µM | > 100 µM | 4.02 µM | > 100 µM | 1.26 µM | > 100 µM | 5.33 µM | > 100 µM | 2.35 µM | > 100 µM | 1.33 µM | 13 µM | 0.653 µM | > 100 µM | 13.4 µM | > 100 µM
8 | NCCCCCCCCCn1c2c(c3ccccc3c1=O)C(=O)c1ccccc1-2 | 8.8 µM | 17.4 µM | 7.94 µM | 17 µM | 7.68 µM | 18.6 µM | 4.1 µM | 40.4 µM | 9.15 µM | 18.8 µM | 10.4 µM | 30.8 µM | 6.11 µM | 15.6 µM | 7.74 µM | 16.4 µM | 9.62 µM | 26.1 µM | 10.1 µM | 22.7 µM
9 | Nc1nc(-c2ccc3ccccc3c2)cc(-c2cc(-c3ccc4ccccc4c3)nc(N)n2)n1 | – | > 100 µM | – | > 100 µM | – | > 100 µM | – | > 100 µM | – | > 100 µM | – | > 100 µM | – | > 100 µM | – | > 100 µM | – | > 100 µM | – | > 100 µM
10 | COc1ccc2c(c1)C(=O)c1c-2c(OCCN2CCCCC2)nc2ccc(OC)cc12 | 4.51 µM | 16.7 µM | 1.12 µM | 7.68 µM | 0.259 µM | 1.67 µM | 0.305 µM | 1.81 µM | 0.342 µM | 2.96 µM | 0.474 µM | 2.67 µM | 0.269 µM | 2.19 µM | 1.04 µM | 4.73 µM | 0.275 µM | 2.05 µM | 2.07 µM | 6.9 µM
11 | C=C(C)C1CCC2(C(=O)O)CCC3(C)C(CCC4C5(C)CCC(O)C(C)(C)C5CCC43C)C12 (stereo not drawn) | – | 28.9 µM | – | 12.7 µM | – | 24.5 µM | – | 26.5 µM | – | 27.4 µM | – | 63.5 µM | – | 51.5 µM | – | 20.7 µM | – | 47.7 µM | – | 21.8 µM
12 | Clc1ccc(Nc2ncnc3c2sc2ncccc23)c(Cl)c1 | > 100 µM | > 100 µM | < 0.01 µM | 1.47 µM | < 0.01 µM | 4.32 µM | 0.0382 µM | > 100 µM | < 0.0107 µM | > 33.9 µM | 0.0326 µM | > 100 µM | 0.0617 µM | > 100 µM | 0.0317 µM | > 22.1 µM | < 0.01 µM | > 100 µM | 0.0557 µM | > 100 µM
13 | Cn1c(=O)c(-c2c(Cl)cccc2Cl)cc2cnc(Nc3ccc(I)cc3)nc21 | 0.459 µM | 2.12 µM | 0.065 µM | 0.469 µM | 2.44 µM | 8.28 µM | 0.0174 µM | 0.787 µM | < 0.0247 µM | – | < 0.0118 µM | 0.0785 µM | 0.0188 µM | 2.49 µM | < 0.01 µM | < 0.01 µM | 0.212 µM | > 100 µM | 2.38 µM | > 68.8 µM
14 | Nc1nc(Cl)nc2c1ncn2C1OC(CO)C(O)C1O (stereo not drawn) | > 100 µM | > 100 µM | 4.08 µM | > 100 µM | 3.32 µM | > 100 µM | 0.493 µM | > 41.2 µM | 4.3 µM | > 100 µM | > 100 µM | > 100 µM | 36.1 µM | > 100 µM | > 64.4 µM | > 100 µM | 1.66 µM | > 100 µM | > 100 µM | > 100 µM
15 | CCN(CC)CC(O)c1cc(-c2ccc(Cl)cc2)nc2cc(Cl)ccc12 (stereo not drawn) | 1.65 µM | 3.09 µM | 1.79 µM | 4.49 µM | 1.06 µM | 3.27 µM | 1.68 µM | 3.48 µM | 1.21 µM | 2.64 µM | 2.43 µM | 6.15 µM | 1.73 µM | 3.33 µM | 2.95 µM | 10.1 µM | 1.5 µM | 2.9 µM | 1.86 µM | 3.61 µM

— PubChem BioAssay (NCI)
